The text below walks through data of patent publication US20090215884A1, “METHOD FOR WOUND HEALING” (priority 2005, published 2009).

One test has as its system Me10538 cells. Description: Cytokine production by PEP005-treated human melanoma cells. In kind it is cell-based. The conditions noted are these: 6 h, supernatant. As for the experimental part: Cytokine production by PEP005-treated human cells Confluent cultures of Me10538 cells, keratinocytes, fibroblasts and neutrophils were incubated for 6 h in the absence or presence of PEP005 (1-100 ng/ml). The supernatants were harvested and analyzed for the presence of the following cytokines; TNF-α, IL-6 and IL-8 using a multiplex detection kit (Biosource International, Nivelles, Belgium). Units of detected proteins are pg/ml.

A further test relates to dermal fibroblasts. The experiment in a line: Fibroblast populated collagen lattice (FPCL) reorganization/contraction. The class given is cell-based, human. The conditions noted are these: 0.1 μg/ml PEP005. The source says: A normal adult skin biopsy (6 mm) was obtained (n=1), with informed consent, from an individual attending the Oral Surgery Clinic, School of Dentistry, Wales College of Medicine, Cardiff. Following the application of a local anaesthetic, the dermal biopsy was collected and adult dermal fibroblast cultures established by single cell suspension technique, following enzymic degradation of the specimen. This technique has previously been reliably used to establish viable primary cultures of both oral and dermal fibroblasts in vitro (Cook et al, 2000; Stephens et al, 2001; 2003). […]
The ability of dermal fibroblasts to remodel/reorganize their ECM environment in the presence of PEP005 was examined by fibroblast populated collagen lattices (FPCLs), according to Cook et al (2000). […] The degree of ECM reorganization/lattice contraction was quantified from three separate lattice diameter measurements performed on each of the three replicate samples, at days 1, 2, 3, 4, 5, 6, 7, 10 and 14, after initial fabrication. […]
Each experiment was performed on two separate occasions, with the % reductions in lattice contraction and the MMP densitometric values obtained being expressed as an average for each group of samples

On to `C/C=C(/C)C(=O)O[C@H]1C(C)=C[C@]23C(=O)[C@@H](C=C(CO)[C@@H](O)[C@]12O)[C@H]1[C@@H](C[C@H]3C)C1(C)C` [PEP005, ingenol-3-angelate], for which the IL-8 was under 2 pg/mL with Me10538 cells (PEP005 1 ng/ml), 210 ± 6 pg/mL with Me10538 cells (PEP005 5 ng/ml), 737 ± 26 pg/mL in the test with Me10538 cells (PEP005 10 ng/ml) and 390 ± 18 pg/mL in the test on Me10538 cells (PEP005 100 ng/ml). In addition, in the test on dermal fibroblasts, the “Type I collagen lattice contraction” value was “significantly increased”.
